Experimental data from US20260272924A1, “ISOINDOLINE DERIVATIVE, BENZOINDOLE DERIVATIVE AND USE THEREOF” (SHANGHAI HELIOSON PHARMACEUTICAL CO., LTD., priority 2023, published 2026).

tested on: NCI-H929 multiple myeloma cells; assay: Cell Titer-GLO (CTG) assay for proliferation of NCI-H929 cells; format: cell-based; conditions: Homo sapiens, 72 hours
Protocol: 1. Experimental objective: To determine inhibitory activities of compounds on NCI-H929 multiple myeloma cells.
NCI-H929 cells, purchased from Nanjing Cobioer Biotechnology Co., Ltd, were cultured in RPM11640 (Viva; C3010-0500) medium containing 10% fetal bovine serum (Viva, C04002-500) and 1% of penicillin-streptomycin at 37° C. with 5% of C02 and saturated humidity conditions.
The cells in logarithmic growth phase were plated at 5000 cells per well of a 96-well plate and after overnight incubation, compounds at 0.00512 nM, 0.0256 nM, 0.128 nM, 0.64 nM, 3.2 nM, 16 nM, 80 nM, and 400 nM were dosed into the plate with each dose in 2 duplicate wells. Cells were incubated at 37° C., 5% CO2 for 72 hours. After the incubation, the plate was placed at room temperature for half an hour, and then 50 μL of Cell Titer-Glo® (Promega, G7573) was added. The plate was placed on a shaker for uniform mixing for 2 minutes and was placed in the dark at room temperature for 10 minutes. The luminance signal was measured using SpectraMax Paradigm (Molecular Devices).
Cell activity inhibition rate (%)=1 00−(RLUcompound−RLUblank)/(RLUcontrol−RLUblank)×100%, where control refers to the 0.1% DMSO treatment group, and blank refers to the culture medium control. IC50 values and maximum inhibition rates of the compounds were calculated using a nonlinear regression function “Dose-Response-Inhibition” in Graphpad Prism 7.0.

SMILES	IC50
Cc1ncn(-c2nc(N3CCN(Cc4ccc(Cc5ccc6c7c(cccc57)C(=O)N6C5CCC(=O)NC5=O)cc4)CC3)cc(C(F)(F)F)n2)n1 (stereo not drawn) [Example 69, 3-(6-(4-((4-(2-(3-methyl-1H-1,2,4-triazol-1-yl)-6-(trifluoromethyl)pyrimidin-4-yl)piperazin-1-yl)methyl)benzyl)-2-oxobenzo[cd]indol-1(2H)-yl)piperidin-2,6-dione]	0.04 nM
Cc1nc(N2CCN(Cc3ccc(COc4cccc5c4CN([C@H]4CCC(=O)NC4=O)C5=O)cc3)CC2)cc(-n2cnc(C)n2)n1 [Example 71, (S)-3-(4-((4-((4-(2-methyl-6-(3-methyl-1H-1,2,4-triazol-1-yl)pyrimidin-4-yl)piperazin-1-yl)methyl)benzyl)oxy)-1-oxoisoindolin-2-yl)piperidin-2,6-dione]	0.1 nM
NC(=O)c1cn(-c2cccc(N3CCN(Cc4ccc(COc5cccc6c5CN([C@H]5CCC(=O)NC5=O)C6=O)cc4)CC3)n2)cn1 [Example 57, (S)-1-(6-(4-(4-(((2-(2,6-dioxopiperidin-3-yl)-1-oxoisoindolin-4-yl)oxy)methyl)benzyl)piperazin-1-yl)pyridin-2-yl)-1H-imidazol-4-carboxamide]	0.1 nM
O=C1CCC(N2C(=O)c3cccc4c(Cc5ccc(CN6CCN(c7cc(C(F)(F)F)nc(-n8cnc(C(F)(F)F)c8)n7)CC6)cc5)ccc2c34)C(=O)N1 (stereo not drawn) [Example 56, 3-(2-oxo-6-(4-((4-(6-(trifluoromethyl)-2-(4-(trifluoromethyl)-1H-imidazol-1-yl)pyrimidin-4-yl)piperazin-1-yl)methyl)benzyl)benzo[cd]indol-1(2H)-yl)piperidin-2,6-dione]	0.1 nM
O=C1CCC(N2C(=O)c3cccc4c(Cc5ccc(CN6CCN(c7cccc(-c8nnc(C(F)(F)F)s8)n7)CC6)cc5)ccc2c34)C(=O)N1 (stereo not drawn) [Example 63, 3-(2-oxo-6-(4-((4-(6-(5-(trifluoromethyl)-1,3,4-thiadiazol-2-yl)pyridin-2-yl)piperazin-1-yl)methyl)benzyl)benzo[cd]indol-1(2H)-yl)piperidin-2,6-dione]	0.2 nM
Cc1nc(N2CCN(C3CN(Cc4ccc(COc5cccc6c5CN([C@H]5CCC(=O)NC5=O)C6=O)cc4)C3)CC2)cc(-n2cnc(C)n2)n1 [Example 77, (S)-3-(4-((4-((3-(4-(2-methyl-6-(3-methyl-1H-1,2,4-triazol-1-yl)pyrimidin-4-yl)piperazin-1-yl)azetidin-1-yl)methyl)benzyl)oxy)-1-oxoisoindolin-2-yl)piperidin-2,6-dione]	0.1 nM
Cc1nc(N2CCN(C3CN(Cc4ccc(COc5cccc6c5CN([C@H]5CCC(=O)NC5=O)C6=O)cc4)C3)CC2)cc(-n2cnc(C(F)(F)F)c2)n1 [Example 78, (S)-3-(4-((4-((3-(4-(2-methyl-6-(4-(trifluoromethyl)-1H-imidazol-1-yl)pyrimidin-4-yl)piperazin-1-yl)azetidin-1-yl)methyl)benzyl)oxy)-1-oxoisoindolin-2-yl)piperidin-2,6-dione]	0.1 nM
CC(C)N1CCN=C1c1cccc(N2CCN(Cc3ccc(Cc4ccc5c6c(cccc46)C(=O)N5C4CCC(=O)NC4=O)cc3)CC2)n1 (stereo not drawn) [Example 79, 3-(6-(4-((4-(6-(1-isopropyl-4,5-dihydro-1H-imidazol-2-yl)pyridin-2-yl)piperazin-1-yl)methyl)benzyl)-2-oxobenzo[cd]indol-1(2H)-yl)piperidin-2,6-dione]	1.6 nM
O=C1CCC(N2C(=O)c3cccc4c(Cc5ccc(CN6CCC(Nc7ccnc(-n8ccnc8)n7)CC6)cc5)ccc2c34)C(=O)N1 (stereo not drawn) [Example 9, 3-(6-(4-((4-((2-(1H-imidazol-1-yl)pyrimidin-4-yl)amino)piperidin-1-yl)methyl)benzyl)-2-oxobenzo[cd]indol-1(2H)-yl)piperidin-2,6-dione]	0.07 nM
O=C1CCC(N2C(=O)c3cccc4c(Cc5ccc(CN6CCN(CC7CCN(c8cccc(-n9ccnc9)n8)CC7)CC6)cc5)ccc2c34)C(=O)N1 (stereo not drawn) [Example 8, 3-(6-(4-((4-((1-(6-(1H-imidazol-1-yl)pyridin-2-yl)piperidin-4-yl)methyl)piperazin-1-yl)methyl)benzyl)-2-oxobenzo[cd]indol-1(2H)-yl)piperidin-2,6-dione]	0.04 nM

These reach a lower IC50. Values come first.

IC50	SMILES
0.03 nM	Cc1noc(C)c1-c1nccc(N2CCN(Cc3ccc(Cc4ccc5c6c(cccc46)C(=O)N5C4CCC(=O)NC4=O)cc3)CC2)n1 (stereo not drawn) [Example 65, 3-(6-(4-((4-(2-(3,5-dimethylisoxazol-4-yl)pyrimidin-4-yl)piperazin-1-yl)methyl)benzyl)-2-oxobenzo[cd]indol-1(2H)-yl)piperidin-2,6-dione]
0.03 nM	O=C1CC[C@@H](N2C(=O)c3cccc4c(Cc5ccc(CN6CCN(c7ccnc(-n8cnc(C(F)(F)F)c8)n7)CC6)cc5)ccc2c34)C(=O)N1 [Example 34, (R)-3-(2-oxo-6-(4-((4-(2-(4-(trifluoromethyl)-1H-imidazol-1-yl)pyrimidin-4-yl)piperazin-1-yl)methyl)benzyl)benzo[cd]indol-1(2H)-yl)piperidin-2,6-dione]
0.02 nM	Cn1c(-c2nccc(N3CCN(Cc4ccc(Cc5ccc6c7c(cccc57)C(=O)N6C5CCC(=O)NC5=O)cc4)CC3)n2)cnc1C(F)(F)F (stereo not drawn) [Example 61, 3-(6-(4-((4-(2-(1-methyl-2-(trifluoromethyl)-1H-imidazol-5-yl)pyrimidin-4-yl)piperazin-1-yl)methyl)benzyl)-2-oxobenzo[cd]indol-1(2H)-yl)piperidin-2,6-dione]
0.01 nM	Cc1ncn(-c2ncc(Cl)c(N3CCN(Cc4ccc(Cc5ccc6c7c(cccc57)C(=O)N6C5CCC(=O)NC5=O)cc4)CC3)n2)n1 (stereo not drawn) [Example 45, 3-(6-(4-((4-(5-chloro-2-(3-methyl-1H-1,2,4-triazol-1-yl)pyrimidin-4-yl)piperazin-1-yl)methyl)benzyl)-2-oxobenzo[cd]indol-1(2H)-yl)piperidin-2,6-dione]
0.01 nM	Cc1nc(N2CCN(Cc3ccc(Cc4ccc5c6c(cccc46)C(=O)N5C4CCC(=O)NC4=O)cc3)CC2)cc(-n2cnc(C#N)c2)n1 (stereo not drawn) [Example 51, 3-(6-(4-((4-(6-(-4-cyano-1H-imidazol-1-yl)-2-methylpyrimidin-4-yl)piperazin-1-yl)methyl)benzyl)-2-oxobenzo[cd]indol-1(2H)-yl)piperidin-2,6-dione]
0.01 nM	Cn1cncc1-c1nccc(N2CCN(Cc3ccc(Cc4ccc5c6c(cccc46)C(=O)N5C4CCC(=O)NC4=O)cc3)CC2)n1 (stereo not drawn) [Example 20, 3-(6-(4-((4-(2-(1-methyl-1H-imidazol-5-yl)pyrimidin-4-yl)piperazin-1-yl)methyl)benzyl)-2-oxobenzo[cd]indol-1(2H)-yl)piperidin-2,6-dione]
0.01 nM	Cc1nc(N2CCN(Cc3ccc(Cc4ccc5c6c(cccc46)C(=O)N5C4CCC(=O)NC4=O)cc3)CC2)cc(-n2cnc(Cl)c2)n1 (stereo not drawn) [Example 50, 3-(6-(4-((4-(6-(-4-chloro-1H-imidazol-1-yl)-2-methylpyrimidin-4-yl)piperazin-1-yl)methyl)benzyl)-2-oxobenzo[cd]indol-1(2H)-yl)piperidin-2,6-dione]
0.003 nM	Cc1ncn(-c2cccc(N3CCN(C4CN(Cc5ccc(Cc6ccc7c8c(cccc68)C(=O)N7C6CCC(=O)NC6=O)cc5)C4)CC3)n2)n1 (stereo not drawn) [Example 53, 3-(6-(4-((3-(4-(6-(3-methyl-1H-1,2,4-triazol-1-yl)pyridin-2-yl)piperazin-1-yl)azetidin-1-yl)methyl)benzyl)-2-oxobenzo[cd]indol-1(2H)-yl)piperidin-2,6-dione]
